Tests used:
[1] = Cell cytotoxicity assay, HUH7; format: cell-based; settings: human; Huh7 cells, 5 days at 37° C., XTT dye
Description: (§1) Cells were seeded 24 hours prior to compound addition. Each test compound (serially diluted from 100 μM) was added to Huh7 (1.5×10^4 cells/well) or HepG2 (1.5×10^4 cells/well), and allowed to incubate for 5 days at 37° C. A medium only control was used to determine the minimum absorbance value and an untreated cell value. At the end of the growth period, XTT dye from Polysciences Europe GmbH was added to each well. The absorbance at 450 nm with a reference wavelength of 600 nm was read with a Sunrise (Tecan) using the medium only control wells as blanks. The 50% inhibition value (CC50) was determined by comparing the degree of inhibition (compared to cell control) plotted against compound concentration. Results from the dilution series were fitted to a sigmoidal dose-response curve.
(§2) Compounds of the invention were evaluated in these assays to assess the stability in human intestinal S9 fraction (HIS9) and human liver S9 fraction (HLS9), and for Cell Cytotoxicity in HUH7, HEP3B and HEPG2 cells.

[2] = Cell cytotoxicity assay, HEPG2; format: cell-based; settings: human; HepG2 cells, 5 days at 37° C., XTT dye
Description: as §1, §2

[3] = Stability in human liver S9 fraction (HLS9); format: in vitro ADME; settings: human liver S9 0.4 mg protein/mL, 5 μM test compound, 37° C.; for microsomal CLint at 5 μM: liver S9 fraction, pH 7.4
Description: (§3) Stability in Human Intestinal S9 Fraction (HIS9) and in Human Liver S9 Fraction (HLS9),
(§4) Stock solutions of each test compound (10 mM) were prepared in DMSO and stored at −20° C. Prior to the start of the experiment, the test compounds were diluted to 500 μM in 50% acetonitrile in water. The reaction mixture was prepared in a total volume of 250 μL containing 5 mM MgC2, 1 mM NADPH and 5 μM test compound in 50 mM potassium phosphate buffer (pH 7.4). The reaction was initiated by addition of human liver or intestinal S9 fraction with a final concentration of 0.4 mg protein/mL (Xeno Tech). The reaction mixture was incubated on an orbital shaker at 37° C. At the desired time points (0, 10, 30 and 60 minutes) aliquots of 50 μL were taken and the reaction was stopped by mixing with 150 μL acetonitrile containing internal standard. Standard solutions of each test compound were prepared from the 500 μM solution by diluting the solution to a final concentration of 5 μM in boiled human S9 (0.4 mg protein/mL), 5 mM MgCl2 and 50 mM potassium phosphate buffer (pH 7.4). The standards and samples were kept on ice for 30 min then centrifuged at 3 000 g for 20 minutes at 10° C., there after 10 μL of supernatant was mixed with 200 μL 50% acetonitrile in water. 0.5 μM of each test compound in 50% acetonitrile in water was injected into the LC/MS-MS to determine the daughter ion, declustring potential (DP), collision energy (CE) and collision cell exit potential (CXP) in order to develop a LC/MS-MS method. The compounds were separated using a C18 column with a QTRAP5500 system. The mobile phase consisted of solvent A (98% water, 2% acetonitrile, 0.1% acetic acid or 10 mM ammonium acetate) and solvent B (80% acetonitrile, 20% water, 0.1% acetic acid or 10 mM ammonium acetate). Elution of the compounds was performed by using a gradient of solvent B from 0% to 100%. 5 μL of standard points and samples were injected for analysis with QTRAP5500.
(§5) The amount of parent compound was determined on the basis of the peak area for each time point compared to standard which was set to 5 μM. Intrinsic clearance (CLint) and half-life (t1/2) were determined from the disappearance curves of the test compound using Excel software.

[4] = Stability in human intestinal S9 fraction (HIS9); format: in vitro ADME; settings: human intestinal S9 0.4 mg protein/mL, 5 μM test compound, 37° C.
Description: as §3, §4, §5

Huh7 = experiment: Cell cytotoxicity assay, HUH7; format: cell-based; settings: Huh7 cells, 5 days at 37° C., XTT dye
Description: as §1, §2

HEP3B = experiment: Cell cytotoxicity assay, HEP3B; format: cell-based; settings: HEP3B cells
Description: as §1, §2

HepG2 = experiment: Cell cytotoxicity assay, HEPG2; format: cell-based; settings: HepG2 cells, 5 days at 37° C., XTT dye
Description: as §1, §2

CLint Intestinal S9 [4] | CLint Liver S9 [3] | Structure (SMILES) | CC50 at 5 days [1] | CC50 at 5 days [2] | microsomal CLint at 5 μM [3] | microsomal CLint at 5 μM ([4]; intestinal S9 fraction, pH 7.4) | CC50 (Huh7) | CC50 (HEP3B) | CC50 (HepG2)
 |  | COC(=O)[C@H](Cc1ccccc1)NP(=O)(OC[C@H]1OC[C@@H](n2ccc(N)nc2=O)O1)Oc1ccccc1 (single isomer, unassigned) [28 dia-2] | 15600 nM | 2720 nM | 20 µL/min/mg | 40 µL/min/mg |  |  | 
6 µL/min/mg | 51 µL/min/mg | CC[C@@H](C)OC(=O)[C@H](C)NP(=O)(OC[C@H]1OC[C@@H](n2ccc(N)nc2=O)O1)Oc1ccc([Si](C)(C)C)cc1 (single isomer, unassigned; dia-1) [11 dia-1] |  |  |  |  | 26 nM | 18 nM | 54 nM
8 µL/min/mg | 50 µL/min/mg | CCC[C@H](C)OC(=O)[C@H](C)NP(=O)(OC[C@H]1OC[C@@H](n2ccc(N)nc2=O)O1)Oc1ccc(C2CC2)cc1 (single isomer, unassigned; dia-1) [16 dia-1] |  |  |  |  | 1200 nM | 106 nM | 151 nM
6 µL/min/mg | 21 µL/min/mg | CC[C@@H](C)OC(=O)[C@H](C)NP(=O)(OC[C@H]1OC[C@@H](n2ccc(N)nc2=O)O1)Oc1ccccc1 (single isomer, unassigned; dia-1) [18 dia-1] |  |  |  |  | 461 nM | 228 nM | 248 nM
32 µL/min/mg | 186 µL/min/mg | CCCC(CCC)COC(=O)[C@H](C)NP(=O)(OC[C@H]1OC[C@@H](n2ccc(N)nc2=O)O1)Oc1ccc(Br)cc1 (single isomer, unassigned; dia-1) [23 dia-1] |  |  |  |  |  | 10 nM | 8.6 nM
6 µL/min/mg | 7 µL/min/mg | COC(=O)[C@H](C)NP(=O)(OC[C@H]1OC[C@@H](n2ccc(N)nc2=O)O1)Oc1ccccc1 (single isomer, unassigned; dia-1) [26 dia-1] |  |  |  |  |  | 4340 nM | 1210 nM
 |  | CCCC(CCC)COC(=O)[C@H](C)NP(=O)(OC[C@H]1OC[C@@H](n2ccc(N)nc2=O)O1)Oc1ccccc1 (single isomer, unassigned; dia-2) [8 dia-2] |  |  |  |  | 74 nM | 35 nM | 17 nM
28 µL/min/mg | 81 µL/min/mg | CC[C@@H](C)OC(=O)[C@H](C)NP(=O)(OC[C@H]1OC[C@@H](n2ccc(N)nc2=O)O1)Oc1ccc([Si](C)(C)C)cc1 (single isomer, unassigned; dia-2) [11 dia-2] |  |  |  |  |  | 31 nM | 54 nM
300 µL/min/mg | 97 µL/min/mg | Nc1ccn([C@@H]2CO[C@H](COP(=O)(N[C@@H](Cc3ccccc3)C(=O)OCc3ccccc3)Oc3cccc(C4CC4)c3)O2)c(=O)n1 (single isomer, unassigned; dia-2) [12 dia-2] |  |  |  |  | 5020 nM |  | 1090 nM
59 µL/min/mg | 159 µL/min/mg | CCCC(CCC)COC(=O)[C@H](C)NP(=O)(OC[C@H]1OC[C@@H](n2ccc(N)nc2=O)O1)Oc1cccc2ccccc12 (single isomer, unassigned; dia-2) [14 dia-2] |  |  |  |  | 200 nM |  | 12 nM
36 µL/min/mg | 95 µL/min/mg | CCC(CC)COC(=O)[C@H](C)NP(=O)(OC[C@H]1OC[C@@H](n2ccc(N)nc2=O)O1)Oc1ccccc1 (single isomer, unassigned; dia-2) [15 dia-2] |  |  |  |  | 26 nM |  | 19 nM
8 µL/min/mg | 59 µL/min/mg | CCC[C@H](C)OC(=O)[C@H](C)NP(=O)(OC[C@H]1OC[C@@H](n2ccc(N)nc2=O)O1)Oc1ccc(C2CC2)cc1 (single isomer, unassigned; dia-2) [16 dia-2] |  |  |  |  | 152 nM | 53 nM | 130 nM
7 µL/min/mg | 30 µL/min/mg | CC[C@@H](C)OC(=O)[C@H](C)NP(=O)(OC[C@H]1OC[C@@H](n2ccc(N)nc2=O)O1)Oc1ccccc1 (single isomer, unassigned; dia-2) [18 dia-2] |  |  |  |  | 76 nM | 113 nM | 65 nM
17 µL/min/mg | 24 µL/min/mg | C[C@H](NP(=O)(OC[C@H]1OC[C@@H](n2ccc(N)nc2=O)O1)Oc1ccccc1)C(=O)OCc1ccccc1 (single isomer, unassigned; dia-2) [19 dia-2] |  |  |  |  | 71 nM | 58 nM | 14 nM
6 µL/min/mg | 25 µL/min/mg | CCC[C@H](C)OC(=O)[C@H](C)NP(=O)(OC[C@H]1OC[C@@H](n2ccc(N)nc2=O)O1)Oc1ccccc1 (single isomer, unassigned; dia-2) [20 dia-2] |  |  |  |  | 73 nM | 78 nM | 60 nM
10 µL/min/mg | 22 µL/min/mg | CCC(CC)OC(=O)[C@H](C)NP(=O)(OC[C@H]1OC[C@@H](n2ccc(N)nc2=O)O1)Oc1ccccc1 (single isomer, unassigned; dia-2) [21 dia-2] |  |  |  |  | 70 nM |  | 48 nM
34 µL/min/mg | 43 µL/min/mg | C[C@H](NP(=O)(OC[C@H]1OC[C@@H](n2ccc(N)nc2=O)O1)Oc1cccc2ccccc12)C(=O)OC1CCCC1 (single isomer, unassigned; dia-2) [22 dia-2] |  |  |  |  | 40 nM |  | 11 nM
6 µL/min/mg | 10 µL/min/mg | COC(=O)[C@H](C)NP(=O)(OC[C@H]1OC[C@@H](n2ccc(N)nc2=O)O1)Oc1ccccc1 (single isomer, unassigned; dia-2) [26 dia-2] |  |  |  |  | 4730 nM | 4020 nM | 1060 nM
51 µL/min/mg | 34 µL/min/mg | CCCCCCCCCCCCCCCC(=O)Nc1ccn([C@@H]2CO[C@H](COP(=O)(N[C@@H](C)C(=O)OC(C)C)Oc3ccccc3)O2)c(=O)n1 (single isomer, unassigned; dia-2) [35 dia-2] |  |  |  |  | 11 nM |  | 7 nM

Structure (SMILES) | CLint Intestinal S9 [4] | CLint Liver S9 [3] | CC50 at 5 days [1] | CC50 at 5 days [2] | microsomal CLint at 5 μM [3] | microsomal CLint at 5 μM ([4]; intestinal S9 fraction, pH 7.4) | CC50 (Huh7) | CC50 (HEP3B) | CC50 (HepG2)
CC(C)OC(=O)[C@H](C)NP(=O)(OC[C@H]1OC[C@@H](n2ccc(N)nc2=O)O1)Oc1ccccc1 (single isomer, unassigned) [Example 2] | 6 µL/min/mg |  | 1750 nM | 248 nM | 13 µL/min/mg |  |  |  | 
CC(C)OC(=O)[C@H](C)NP(=O)(OC[C@H]1OC[C@@H](n2ccc(N)nc2=O)O1)Oc1ccccc1 (single isomer, unassigned) [Example 3] | 6 µL/min/mg |  | 3280 nM | 371 nM | 8 µL/min/mg |  |  |  | 
CC(C)OC(=O)[C@H](C)NP(=O)(OC[C@H]1OC[C@@H](n2ccc(=O)[nH]c2=O)O1)Oc1ccccc1 (stereo partly drawn) [Example 1, (2S)-isopropyl 2-(((((2S,4S)-4-(2,4-dioxo-3,4-dihydropyrimidin-1(2H)-yl)-1,3-dioxolan-2-yl)methoxy)(phenoxy)phosphoryl)amino)propanoate] | 6 µL/min/mg |  | > 100000 nM | > 100000 nM | 12 µL/min/mg |  |  |  | 
